In ChEMBL document CHEMBL4665806, “Structure-based optimisation of orally active & reversible MetAP-2 inhibitors maintaining a tight 'molecular budget'” (Bioorg Med Chem Lett, 2020):
≈ marks a conversion by molar mass, not a printed value. Calls of active or inactive are those of the source. The rule behind the calls is not given here.

Key:
[1] = Intrinsic clearance in human; type: ADME
[2] = Chromatographic hydrophobicity index, log D of the compound at pH 7.4; type: physicochemical; settings: buffer
[3] = Intrinsic clearance in rat; type: ADME
Mus musculus [4] = experiment: Antiinflammatory activity in antigen KLH-TNP- treated po dosed mouse model of B-cell adaptive immunity assessed as inhibition of secondary response administered twice daily from day 21 to day 31; type: functional, organism-based; settings: dose mg/kg 3-30, time 10.0 day
Mus musculus [5] = experiment: Antiinflammatory activity in antigen KLH-TNP- treated mouse model of B-cell adaptive immunity assessed as inhibition of secondary response at 3 mg/kg, po administered twice daily from day 21 to day 31 relative to control; type: functional; design: scale not given: the % may be the effect or the level left; settings: time 10 day
[6] = molecular target: Methionine aminopeptidase 2 (Mus musculus, UniProt O08663); experiment: Inhibition of MetAP2 in mouse B cells assessed as reduction in IgG secretion; type: cell-based, B-cell
[7] = Clearance in po dosed mouse; type: ADME, organism-based; settings: in vivo
Mus musculus [8] = experiment: Antiinflammatory activity in anti-KLH treated mouse model of B-cell adaptive immunity assessed as inhibition of secondary response at […] mg/kg, po administered twice daily from day 21 to day 31 relative to control; type: functional, organism-based; settings: dose 3.0 mg/kg, time 10.0 day
[9] = Solubility of the compound; type: physicochemical
Mus musculus [10] = experiment: Antiinflammatory activity in antigen KLH-TNP- treated mouse model of B-cell adaptive immunity assessed as inhibition of secondary response at 30 mg/kg, po administered twice daily from day 21 to day 31 relative to control; type: functional; design: scale not given: the % may be the effect or the level left; settings: dose 3 mg/kg; time 10 day
Mus musculus [11] = experiment: Antiinflammatory activity in antigen KLH-TNP- treated mouse model of B-cell adaptive immunity assessed as inhibition of secondary response at 10 mg/kg, po administered twice daily from day 21 to day 31 relative to control; type: functional; design: scale not given: the % may be the effect or the level left; settings: time 10 day
[12] = Half life in po dosed mouse; type: ADME, organism-based; settings: in vivo
[13] = Oral bioavailability in mouse at 10 mg/kg; type: ADME, organism-based; settings: in vivo
[14] = Volume of distribution at steady state in po dosed mouse; type: ADME, organism-based; settings: in vivo

Chain of Methionine aminopeptidase 2 (O08663 whole entry): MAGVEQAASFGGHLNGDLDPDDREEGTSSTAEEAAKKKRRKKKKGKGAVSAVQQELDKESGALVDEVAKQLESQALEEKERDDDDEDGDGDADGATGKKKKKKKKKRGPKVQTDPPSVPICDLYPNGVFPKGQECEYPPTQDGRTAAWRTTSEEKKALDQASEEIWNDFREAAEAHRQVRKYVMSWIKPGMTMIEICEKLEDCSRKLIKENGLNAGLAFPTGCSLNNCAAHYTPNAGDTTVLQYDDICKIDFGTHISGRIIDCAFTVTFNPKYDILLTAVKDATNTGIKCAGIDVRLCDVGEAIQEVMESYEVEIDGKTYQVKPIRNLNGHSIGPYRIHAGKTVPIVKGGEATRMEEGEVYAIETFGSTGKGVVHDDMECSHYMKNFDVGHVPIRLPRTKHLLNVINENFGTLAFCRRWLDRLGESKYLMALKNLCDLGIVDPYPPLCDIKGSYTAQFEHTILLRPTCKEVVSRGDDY

Row | SMILES | CLint scaled [1] | chromatographic logD [2] | CLint scaled [3] | Activity (Mus musculus [4]) | Activity (Mus musculus [5]) | IC50 [6] | CL/F [7] | Activity (Mus musculus [8]) | solubility [9] | Activity (Mus musculus [10]) | Activity (Mus musculus [11]) | half-life [12] | bioavailability [13] | Vdss [14]
1 | CC(C)Oc1cc(N2CCNCC2)ccc1-c1c(C(N)=O)[nH]c2cc(F)c(Cl)cc12 | < 1 mL/min/kg | 3.1 | < 1 mL/min/kg | – | – | – | – | – | – | – | – | – | – | –
2 | CC(C)Oc1cc(N2CCNCC2)ccc1-c1c(C(N)=O)[nH]c2cc(F)c(F)cc12 | < 1 mL/min/kg | 2.8 | < 1 mL/min/kg | Dose-dependent effect | 15% | 39.8 nM | 45 mL/min/kg | Active | 629 µg/mL (≈ 1520 µM) | 89% | 39% | 4.5 h | 89% | 7.7 L/kg
